{
  "source": "patent US8415372B2",
  "about": "“Sulfonamide compound” (Asahi Kasei Pharma Corporation, priority 2007, dated 2013)",
  "data": [
    {"tested_on": "rabbit normal intraocular pressure", "experiment": "Intraocular pressure reducing action (Test Example 3)", "assay_type": "in vivo, Japanese white rabbit", "conditions": "Oryctolagus cuniculus, topical; 3 mM aqueous solution, 50 μl to the left eye; max difference of left and right eyes at 2, 4 and 6 hours relative to value before administration; read-out: Intraocular pressure reducing degree", "protocol": "A Japanese white rabbit having a body weight of about 2 kg was placed in a positioner and naturalized for one week before the experiment. An ophthalmologic local anesthesant (Benoxil) was administered to both eyes, and then intraocular pressure was measured by using a tonometer (Classic 30, Solan). A 3 mM aqueous solution of a test compound was administered in a volume of 50 μl to the left eye, and the right eye was not treated (control eye). The intraocular pressure values were measured for the left and right eyes immediately before, and 2, 4 and 6 hours after the administration of the aqueous solution of the test compound, and the difference of the measured values for the left and right eyes was considered an intraocular pressure reduction value of the test medicament at each measurement time. The largest difference of the values for the left and right eyes among the measured values at the measurement times (after 2, 4 and 6 hours) was considered the maximum intraocular pressure reduction value (max ? IOP) of each test medicament. The intraocular pressure reducing degree representing the intraocular pressure reducing action of each test medicament was calculated according to the following formula. Since rabbits show significant daily variation of intraocular pressure, daily variation is added when change of intraocular pressure is measured over time, and the intraocular pressure reducing action may be overestimated. Therefore, we used this calculation method of intraocular pressure reduction value in order to minimize the influence of the variation. Intraocular pressure reducing degree(%)=(max ? IOP/Intraocular pressure value immediately before administration)×100", "units": {"inhibition in vivo at 3000 µM": "%"}, "values": [
      {"smiles": "NCCNC1CCN(S(=O)(=O)c2cccc3cncc(Br)c23)C1", "note": "(stereo not drawn) [Example 1-31]", "inhibition in vivo at 3000 µM": "10 to 20"},
      {"smiles": "CN[C@H]1CCN(S(=O)(=O)c2cccc3cncc(C)c23)C1", "note": "[Example 8-3]", "inhibition in vivo at 3000 µM": "≥ 20"},
      {"smiles": "O=S(=O)(c1cccc2cncc(Cl)c12)N1CC[C@H](NCc2ccco2)C1", "note": "[Example 19-14]", "inhibition in vivo at 3000 µM": "5 to 10"},
      {"smiles": "CN[C@H]1CCN(S(=O)(=O)c2cccc3cncc(Br)c23)C1", "note": "[Example 1-3, (S)-1-(4-Bromo-5-isoquinolinesulfonyl)-3-(methylamino)pyrrolidine]", "inhibition in vivo at 3000 µM": "≥ 20"},
      {"smiles": "Cc1cncc2cccc(S(=O)(=O)N3CCC(NC4CCCC4)C3)c12", "note": "(stereo not drawn) [Example 8-29]", "inhibition in vivo at 3000 µM": "5 to 10"},
      {"smiles": "Cc1cncc2cccc(S(=O)(=O)N3CCC(NC4CCC4)C3)c12", "note": "(stereo not drawn) [Example 8-28]", "inhibition in vivo at 3000 µM": "5 to 10"},
      {"smiles": "Cn1cccc1CN[C@H]1CCN(S(=O)(=O)c2cccc3cncc(Cl)c23)C1", "note": "[Example 19-21]", "inhibition in vivo at 3000 µM": "≥ 20"},
      {"smiles": "Cc1cncc2cccc(S(=O)(=O)N3CCC(NCCc4ccccc4)C3)c12", "note": "(stereo not drawn) [Example 8-37]", "inhibition in vivo at 3000 µM": "5 to 10"},
      {"smiles": "Cc1cncc2cccc(S(=O)(=O)N3CCC(NC4CCOCC4)C3)c12", "note": "(stereo not drawn) [Example 8-31]", "inhibition in vivo at 3000 µM": "10 to 20"},
      {"smiles": "Cc1cncc2cccc(S(=O)(=O)N3CCC(NC4CCCCC4)C3)c12", "note": "(stereo not drawn) [Example 8-30]", "inhibition in vivo at 3000 µM": "5 to 10"},
      {"smiles": "Cc1cncc2cccc(S(=O)(=O)N3CCC(NC(C)C)C3)c12", "note": "(stereo not drawn) [Example 8-27]", "inhibition in vivo at 3000 µM": "10 to 20"},
      {"smiles": "O=S(=O)(c1cccc2cncc(Cl)c12)N1CC[C@H](NCc2cccs2)C1", "note": "[Example 19-17]", "inhibition in vivo at 3000 µM": "5 to 10"},
      {"smiles": "CN[C@H]1CCN(S(=O)(=O)c2cccc3cncc(Cl)c23)C1", "note": "[Example 19-3, (S)-1-(4-Chloro-5-isoquinolinesulfonyl)-3-(methylamino)pyrrolidine]", "inhibition in vivo at 3000 µM": "≥ 20"},
      {"smiles": "C#Cc1cncc2cccc(S(=O)(=O)N3CC[C@H](NCc4ccco4)C3)c12", "note": "[Example 10-14]", "inhibition in vivo at 3000 µM": "5 to 10"},
      {"smiles": "COc1ccc(CN[C@H]2CCN(S(=O)(=O)c3cccc4cncc(Br)c34)C2)cc1", "note": "[Example 1-7]", "inhibition in vivo at 3000 µM": "5 to 10"},
      {"smiles": "Cc1cncc2cccc(S(=O)(=O)N3CCC(NCCN)C3)c12", "note": "(stereo not drawn) [Example 8-32]", "inhibition in vivo at 3000 µM": "5 to 10"},
      {"smiles": "C=CCNC1CCN(S(=O)(=O)c2cccc3cncc(C)c23)C1", "note": "(stereo not drawn) [Example 8-34]", "inhibition in vivo at 3000 µM": "5 to 10"},
      {"smiles": "Cc1nc(CNC2CCN(S(=O)(=O)c3cccc4cncc(Br)c34)C2)c[nH]1", "note": "(stereo not drawn) [Example 1-19]", "inhibition in vivo at 3000 µM": "5 to 10"},
      {"smiles": "CCN[C@H]1CCN(S(=O)(=O)c2cccc3cncc(Cl)c23)C1", "note": "[Example 19-4]", "inhibition in vivo at 3000 µM": "≥ 20"},
      {"smiles": "O=S(=O)(c1cccc2cncc(Cl)c12)N1CC[C@H](NC2CCOCC2)C1", "note": "[Example 19-31]", "inhibition in vivo at 3000 µM": "≥ 20"},
      {"smiles": "Cn1cccc1CNC1CCN(S(=O)(=O)c2cccc3cncc(Br)c23)C1", "note": "(stereo not drawn) [Example 1-20]", "inhibition in vivo at 3000 µM": "10 to 20"},
      {"smiles": "C#Cc1cncc2cccc(S(=O)(=O)N3CC[C@H](NC4CCOCC4)C3)c12", "note": "[Example 10-31]", "inhibition in vivo at 3000 µM": "≥ 20"}
    ]},
    {"tested_on": "monkey intraocular pressure", "experiment": "Intraocular pressure reduction enhancing action in monkey (Test Example 8)", "assay_type": "in vivo", "conditions": "cynomolgus monkey, 30 μL latanoprost (Xalatan) then 30 μL 19-1 compound aqueous solution, compared with single drug groups", "protocol": "(§1) As for the test compound used for combination use, similar effect can be obtained also with the compounds of the present invention represented with the example numbers mentioned in Test Example 3. The test is performed by using cynomolgus monkeys sufficiently naturalized for the operation of fixation on a monkey chair and intraocular pressure measurement.\n(§2) As the test compound, the 19-1 compound was dissolved in physiological saline, and the solution is neutralized by addition of sodium hydroxide (pH 7.0 to 8.0) to prepare a 0.01 weight % aqueous solution (19-1 compound aqueous solution). As a drug for combination use, latanoprost (trade name: Xalatan, Pfizer) is used as the marketed formulation per se. The test aqueous solution or the drug for combination use is instilled to the left eye, and the right eye is not treated (control eye). […] After initial intraocular pressure values of the monkeys are measured for each group, 30 μL of physiological saline is instilled to the control group, single drug group 1, and single drug group 2, and latanoprost is instilled in the same volume to the combination use group. […] Then, the intraocular pressure is measured over time for each group.", "values": [
      {"smiles": "N[C@H]1CCN(S(=O)(=O)c2cccc3cncc(Cl)c23)C1", "note": "[Example 19-1, (S)-3-Amino-1-(4-chloro-5-isoquinolinesulfonyl)pyrrolidine]", "Intraocular pressure reducing action, combination use group": "exceeding those of both the single drug group 1 and single drug group 2"}
    ]},
    {"tested_on": "monkey intraocular pressure", "experiment": "Intraocular pressure reduction enhancing action in monkey (Test Example 8)", "assay_type": "in vivo", "conditions": "cynomolgus monkey, 30 μL of 0.01 weight % aqueous solution, compared with control group", "protocol": "as §1, §2", "values": [
      {"smiles": "N[C@H]1CCN(S(=O)(=O)c2cccc3cncc(Cl)c23)C1", "note": "[Example 19-1, (S)-3-Amino-1-(4-chloro-5-isoquinolinesulfonyl)pyrrolidine]", "Intraocular pressure reducing action, single drug group 1": "exceeding that of the control group"}
    ]}
  ]
}
